Read-outs that look alike come from different tables or passages of the source.
Tests used:
histamine H3 receptor = molecular target: T1, histamine H3 receptor (Rattus norvegicus, UniProt Q9QYN8); assay: N^α-methylhistamine binding inhibition test ([3H]N^α-methylhistamine, rat fore-brain membrane fraction)
T1 construct: Rat fore-brain was homogenized in 10 volumes of 0.32 M sucrose solution; from tissue; host or cells: rat fore-brain membrane fraction
Description: The PF1270A, B and C substances obtained by the invention have affinity for histamine H3 receptor. Affinity of the PF1270A, B and C substances for histamine H3 receptor was examined by a binding inhibition test of a histamine H3 receptor ligand, N^α-methylhistamine.
Test Example N^α-methylhistamine Binding Inhibition Activity
Rat fore-brain was homogenized in 10 volumes of 0.32 M sucrose solution using a Teflon-glass homogenizer, and the thus obtained homogenate was centrifuged at 1000×g for 10 minutes. The supernatant was centrifuged at 39000×g for 20 minutes to obtain the precipitate. This precipitate was washed with an assay buffer (50 mM Tris (pH 7.4), 5 mM EDTA) by centrifugation. This operation was further carried out twice, and the finally obtained membrane fraction was used as the histamine H3 receptor membrane fraction.
The binding inhibition test was carried out using the thus obtained membrane fraction and a radioactive ligand [^3H]N^α-methylhistamine (manufactured by Perkin-Elmer Life Science). In the presence of PF1270A, B or C substance, the membrane fraction (55 μg as protein) and 1 nM in final concentration of [^3H]N^α-methylhistamine were added to 150 μl of the assay buffer and incubated at room temperature for 60 minutes. This was filtered using a unifilter GF/B filter (manufactured by Perkin-Elmer) coated with 0.3% polyethyleneimine and washed three times with 200 μl of the assay buffer. After drying at 50° C. for 1 hour, 30 μl of Microscinti-20 (manufactured by Perkin-Elmer) was added thereto as the scintillator, and the radioactivity was counted using Top Count (manufactured by Perkin-Elmer). The nonspecific binding was determined by adding a large excess of thioperamide (10 μM in final concentration). The binding inhibition ratio of N^α-methylhistamine in the presence of PF1270A, B or C substance was calculated based on the following formula. […]

[1] = Solubility (physicochemical properties)
[2] = rat fore-brain histamine H3 receptor membrane fraction, 1 nM [3H]N^α-methylhistamine, room temperature 60 minutes, read-out: N^α-methylhistamine binding inhibition activity, IC50 (converted)

T1 sequence (Q9QYN8 whole entry): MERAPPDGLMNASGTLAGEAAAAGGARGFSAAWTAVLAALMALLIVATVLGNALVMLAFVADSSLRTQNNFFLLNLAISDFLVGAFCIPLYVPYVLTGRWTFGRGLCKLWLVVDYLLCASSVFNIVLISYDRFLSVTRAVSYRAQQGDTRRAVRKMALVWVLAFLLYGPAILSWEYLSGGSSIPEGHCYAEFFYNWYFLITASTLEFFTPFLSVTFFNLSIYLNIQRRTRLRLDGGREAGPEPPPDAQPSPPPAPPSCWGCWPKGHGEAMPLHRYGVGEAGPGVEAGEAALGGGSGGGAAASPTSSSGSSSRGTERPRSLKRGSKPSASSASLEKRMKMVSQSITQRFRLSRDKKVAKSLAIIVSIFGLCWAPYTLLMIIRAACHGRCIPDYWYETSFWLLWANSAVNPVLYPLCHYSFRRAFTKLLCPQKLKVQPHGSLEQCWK

Structure (SMILES)	IC50 (histamine H3 receptor) [nM]	Solubility in chloroform and methanol [1]	Solubility in water [1]	IC50 (histamine H3 receptor; [2]) [nM]
CCCC(=O)OC1CC(C)N2CC3(NC)CC4(C(=O)Nc5c(C(=O)C6OC6(C)C)cccc54)C(C)(C=O)C3CC2C1 (stereo not drawn) [PF1270A]	83.1	soluble	hardly soluble	
CNC12CN3C(C)CC(OC(C)=O)CC3CC1C(C)(C=O)C1(C2)C(=O)Nc2c(C(=O)C3OC3(C)C)cccc21 (stereo not drawn) [PF1270C]		soluble	hardly soluble	763
CCC(=O)OC1CC(C)N2CC3(NC)CC4(C(=O)Nc5c(C(=O)C6OC6(C)C)cccc54)C(C)(C=O)C3CC2C1 (stereo not drawn) [PF1270B]		soluble	hardly soluble	399

Reference: US7501431B2, “Physiologically active substances PF1270A, B and C substances” (Meui Seika Kaisha, Ltd., priority 2003, dated 2009)
